Target: T1, crenactin (Pc crenactin) (Pyrobaculum calidifontis, UniProt A3MWN5)
T1 construct: gene cren-1; full length 1-432, codon-optimised, expressed in E. coli as His6-SUMO fusion, tag cleaved by SENP1 with no residues added or removed; helical filament in crystal
Assay: X-ray crystallography, […] Å
Format: binding
Conditions: crystals from 100 mM phosphate/citrate pH 4.2, 200 mM lithium sulfate, 20% PEG 1000; one ADP per subunit, 0 Mg; nucleotide cleft between domains I and II

T1 sequence (A3MWN5 whole entry, the tested form may be a part): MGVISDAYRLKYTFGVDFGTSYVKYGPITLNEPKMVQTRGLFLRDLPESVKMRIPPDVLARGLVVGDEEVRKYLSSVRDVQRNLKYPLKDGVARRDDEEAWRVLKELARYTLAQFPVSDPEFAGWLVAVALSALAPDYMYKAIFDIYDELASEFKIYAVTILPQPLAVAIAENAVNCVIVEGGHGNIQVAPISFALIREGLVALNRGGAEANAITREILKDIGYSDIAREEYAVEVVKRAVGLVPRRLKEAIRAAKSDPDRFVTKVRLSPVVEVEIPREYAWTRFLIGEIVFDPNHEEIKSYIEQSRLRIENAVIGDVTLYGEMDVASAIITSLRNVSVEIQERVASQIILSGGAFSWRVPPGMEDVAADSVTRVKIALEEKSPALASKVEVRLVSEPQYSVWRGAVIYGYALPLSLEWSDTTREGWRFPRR

In the case of `Nc1ncnc2c1ncn2[C@@H]1O[C@H](COP(=O)(O)OP(=O)(O)O)[C@@H](O)[C@H]1O` [ADP], the “X-ray crystallography, 3.2 Å” value was “one molecule of ADP was located and added in each crenactin subunit”.
